Measurements as given in patent US12251385B2, “Covalent inhibitors of menin-MLL interaction for diabetes mellitus” (BIOMEA FUSION, INC., priority 2021, dated 2025).
Entries after “also recorded” stand apart in the source; their conditions may differ.

Assays:
[1] = system: streptozotocin (STZ) induced type II diabetes in Wistar Han rats; assay: Restoration of glycemic control in streptozotocin-induced rats (Example 103); type: in vivo, rat
Description: The present example provides the ability of Compound 10 to restore glycemic control to streptozotocin (STZ) induced type II diabetes in Wistar Han rats. Fahmy et al., 2017, World J. Pharm. Med. Res. 3(3):37-39.
Control and test compounds were stored at 4° C. and prepared weekly as needed. The vehicle for positive control pioglitazone was 0.25% carboxymethylcellulose and 1% Tween® 80 in reverse osmosis deionized water. The vehicle for Compound 10 was 10% DMSO, 10% Solutol HS 15, and 80% (10% hydroxypropyl-β-cyclodextrin in 50 mM citrate buffer at pH 3.0). The vehicle for streptozotocin pretreatment was 0.1 M sodium citrate pH 4.5.
On Day −3, twenty-four Wistar Han rats (plus eight spare Wistar Han rats) were measured for body weight and non-fasting glucose. Starting on Day −42, D12451 Research Diet was provided ad libitum throughout the study, except during designated procedures, as was water. In order to minimize the effects of stress on blood glucose and body, all animals including the spares received daily sham doses with phosphate buffered saline pH 7.2 (dose volume 5 mL/kg) via gavage beginning on Study Day −5 to Day −1. 20% Glucose in drinking water (200 g/L) was provided ad libitum for 24 hr after streptozotocin injection on Day −14 and Day −7.
On Days −14 and −7, streptozotocin was administered at 30 mg/kg/day QD intraperitoneally. Starting on Day 1, control and test compound were administered on the following schedule.
(§1) On Days −7 to −1 and on Days 1, 8, and 14 non-fasting blood glucose was measured. On Day 15, an oral glucose tolerance test was administered. The animals were weighed and the animals were placed in clean cages without food. Access to water was provided throughout the procedure. The animals were fasted for five hours and a blood glucose measurement was determined. The animals were dosed via oral gavage with 2 g/kg glucose (10 mL/kg). Blood glucose was determined via venipuncture. The second drop of blood from the animal was placed on a hand-held glucometer (Abbott Alpha Trak) at the following times relative to the glucose dose: zero (just prior to glucose dose), 15, 30, 60, 90, and 120 min. Following the final blood glucose measurement, food was returned to the cages. On Day 17, 4-hour fasting glucose was measured. Serum samples were used to measure insulin by ELISA. Analysis was performed in one to three days of each collection. On Day 17, terminal blood collection was obtained at about 8 mL per animal and measured for blood glucose.

[2] = system: Zucker Diabetic Fatty (ZDF) rats; assay: Reduction in HbA1c in ZDF rats, 28 days dosing and washout (Example 106); type: in vivo, rat
Description: Zucker Diabetic Fatty (ZDF) rats were dosed daily with Compound 10, liraglutide, or vehicle for twenty-eight days (n=10 per group) and monitored for an additional twenty-eight days post last dose. Fasting blood glucose, insulin, C-peptide levels, HbA1c, oral glucose tolerance test (OGTT), and body weight were monitored during and post-treatment.
ZDF Rat Model—five treatment groups 1. Vehicle; 2. Compound 10 at 40 mg/kg; 3. Compound 10 at 85 mg/kg; 4. Compound 10 at 170 mg/kg; and 5. Liraglutide at 0.2 mg/kg; n=10 per group. Group 2 dose (40 mg/kg) was increased to 200 mg/kg on Day 17 for rest of the dosing phase. Daily dosing zero to twenty-eight days days QD 4 drug wash out twenty-eight to fifty-six days. Rats were monitored for the following parameters through dosing and wash out phases—body weight, fasting blood sugar, blood insulin, C-peptide, OGTT, and HbA1C.

[3] = system: Zucker diabetic fatty rats (ZDF rats, genotype ZDF-Lepr^fa/Crl); assay: Restoration of glycemic control in diabetic fatty rats, dosing Days 1-16 (Example 102); type: in vivo, rat
Description: The present examples provides the ability of Compound 10 to restore glycemic control to diabetic Zucker diabetic fatty rats (ZDF rats, genotype ZDF-Lepr^fa/Crl; Charles River). Cornicelli et al., 2005, Charles River.
Control and test compounds were stored at 4° C. and prepared weekly as needed. The vehicle for positive control pioglitazone was 0.25% carboxymethylcellulose and 1% Tween® 80 in reverse osmosis deionized water. The vehicle for Compound 10 was 10% DMSO, 10% Solutol HS 15, and 80% (10% hydroxypropyl-β-cyclodextrin in 50 mM citrate buffer at pH 3.0).
On Day −3, twenty-four ZDF rats (plus eight spare ZDF rats) were measured for body weight and non-fasting glucose. LabDiet 5008 was provided ad libitum throughout the study, except during designated procedures, as was water. In order to minimize the effects of stress on blood glucose and body, all animals including the spares received daily sham doses with phosphate buffered saline pH 7.2 (dose volume 5 mL/kg) via gavage beginning on Study Day −5 to Day −1.
Vehicle, control, and test compound were administered via oral gavage according to the following design on Days 1-16.
as §1, with “−3,” for “−7 to −1 and on Days”, “On Day 15, an oral glucose tolerance test was administered.” left out, “weighed,” for “weighed”, “tail snip.” for “venipuncture.”, “collections. […]” for “collection. On Day 17, terminal blood collection was obtained at about 8 mL per animal and measured for blood glucose.”

[4] = system: Type 2 Diabetes Mellitus (T2DM) Zucker Diabetic Fatty Rat model; assay: Glycemic control in ZDF rats, 28 days treatment plus 28 days post-treatment (Example 104); type: in vivo
Description: Rats were treated daily with Compound 10, liraglutide, or vehicle for twenty-eight days and monitored for an additional twenty-eight days post-treatment.

[5] = system: Zucker Diabetic Fatty (ZDF) Rat; assay: ZDF rat model, 16 days dosing and drug washout to Day 29 (Example 105); type: in vivo; settings: ZDF rats
Description: (§2) ZDF rats were treated daily with Compound 10, vehicle, or pioglitazone for sixteen days and monitored for an additional two weeks post-treatment until Day 29. STZ rat models were induced through pre-treatment of animals on a high-fat diet with low doses of streptozotocin at Day −14 and Day −7 prior to starting treatment at Day Zero until Day 16. ZDF and STZ rats were monitored for fasting blood glucose levels, oral glucose tolerance test (OGTT), insulin and C-peptide levels, HOMA-IR (Homeostatic Model Assessment of Insulin Resistance), blood lipemic levels, and body weight according to the schematic for each model below. ZDF rats were analyzed for indicated readouts for fifteen days post-treatment for OGTT at Day 29, and serum insulin and C-peptide at Day 31.
ZDF Rat Model—three treatment groups 1. Vehicle; 2. Compound 10 at 175 mg/kg; and 3. Pioglitazone at 30 mg/kg; n=10 per group. Daily dosing zero to sixteen days QD 4 drug wash out at sixteen to twenty-nine days. Rats were monitored for the following parameters through dosing and wash out phases—body weight, fasting blood sugar, blood insulin, C-peptide, and OGTT.

[6] = system: Streptozotocin-induced Rat (STZ); assay: STZ rat model, 16 days dosing (Example 105); type: in vivo; settings: STZ rats
Description: as §2
STZ Rat Model—three treatment groups 1. Vehicle; 2. Compound 10 at 175 mg/kg; and 3. Pioglitazone at 30 mg/kg; n=10 per group. Fourteen-day STZ pretreatment prior to dosing. Daily dosing zero to sixteen days QD. Rats were monitored for the following parameters through dosing—body weight, blood glucose levels, and OGTT.

[7] = twenty-eight days of treatment, FIG. 18
[8] = up to the last day of dosing, lasting two weeks post last dose
[9] = 175 mg/kg QD, after two weeks of treatment
[10] = 175 mg/kg QD, after two weeks of treatment, p<0.05

In the case of `C=CC(=O)N[C@@H]1CCCN(Cc2ccnc(C(=O)Nc3ccc(-c4cc5c(N6CCOCC6)ncnc5[nH]4)cc3)c2)C1` [Compound 10], the non-fasting glucose ([1]; STZ-induced Wistar Han rats, 175 mg/kg/day PO QD, compared to vehicle and control, FIG. 8) is reported as “sharp reduction”, the “insulin, 4-hour fasting state (FIG. 10B)” value ([1]; STZ-induced rats, Day 17) is reported as “maintenance or reduction” and the “insulin, non-fasting state (FIG. 10A)” value ([1]; STZ-induced rats, Days 1, 8 and 14) is reported as “maintenance or reduction”. For the same compound, the “insulin, non-fasting state (FIG. 9)” value ([1]; STZ-induced rats, Days 1 and 8) was “significant reduction”, the “oral glucose tolerance test (blood glucose, AUC)” value ([1]; STZ-induced rats, after fifteen days of treatment, significant relative to vehicle and control, FIGS. 11A-11B) was “significant glucose control” and the “HbA1c, all doses tested” value ([2]; 4-week dosing study) was “significantly reduces; also recorded: significant reductions”. The “fasting blood glucose levels, mid- and high-dose arms” value ([2]; 85 and 170 mg/kg QD, similar to liraglutide) was “reduction”, the “HbA1c two weeks after the last dose” value ([2]; Day 15 post-dosing, FIG. 21) was “maintains a significant reduction” and the “HbA1c absolute amount lower than the liraglutide group” value ([2]; Day 29) was 1.8%. The “HbA1c absolute amount lower than the vehicle group” value ([2]; Day 29) was 3.5%, the “HbA1c reduced from vehicle (relative)” value ([2]; Day 29) was 33% and the “HbA1c relative reduction printed with the liraglutide comparison” value ([2]; Day 29, reduced from vehicle) was 20%. For the same compound, the “glycemic control over four weeks of dosing” value ([2]; FIG. 20) was “durable glycemic control”, the “fasting blood glucose, Day 29” value ([2]; high-dose group, one day after treatment stopped) was “sustained and significant reduction” and the “oral glucose tolerance test (OGTT) on Day 25, high-dose group” value ([2]; high-dose-treated group versus liraglutide) was “improved response versus liraglutide”. The “oral glucose tolerance test (OGTT) on Day 25, all dose groups” value ([2]; in comparison to the vehicle-treated group) was “improved glycemic control”, the “body weight over time” value [2, 7] was “progressive increase” and the “fasting blood glucose levels over time” value [2, 7] was “progressive increase”. For the same compound, the fasting c-peptide levels [2, 8] was “elevated”, the fasting insulin levels [2, 8] was “elevated” and the “insulin, non-fasting state” value ([3]; 175 mg/kg/day PO QD, Days 1, 8, 14, compared to vehicle and control, FIG. 2A) was “significant reduction”. For the same compound, the “glucose, fasting state” value ([3]; 175 mg/kg/day PO QD, compared to vehicle and control, FIG. 1B) was “significant reduction”, the “insulin, fasting state” value ([3]; 175 mg/kg/day PO QD, compared to vehicle and control, FIG. 2B) was “significant reduction” and the “insulin resistance (HOMA), non-fasting state” value ([3]; 175 mg/kg/day PO QD, compared to vehicle and control, FIG. 3A) was “significant reduction”. The “insulin resistance (HOMA), fasting state” value ([3]; 175 mg/kg/day PO QD, compared to vehicle and control, FIG. 3B) was “significant reduction”, the “glucose, non-fasting state” value ([3]; Compound 10 175 mg/kg/day PO QD, compared to vehicle and control (pioglitazone), FIG. 1A) was “significant reduction” and the “oral glucose tolerance test (blood glucose, AUC), Day 29” value ([3]; Day 29, after fourteen days of no treatment, FIGS. 5A-5B) was “significant glucose control”. For the same compound, the “C-peptide two weeks after therapy” value ([3]; FIG. 7) was “increasing C-peptide”, the “oral glucose tolerance test (blood glucose, AUC)” value ([3]; after fifteen days of treatment, 2 g/kg glucose, FIGS. 4A-4B) was “significant glucose control” and the “4-hour fasting insulin after two weeks without therapy” value ([3]; no therapy for two weeks, statistically superior to control, FIG. 6A) was “increasing insulin”. For the same compound, the “4-hour fasting glucose after two weeks without therapy” value ([3]; no therapy for two weeks, statistically superior to control, FIG. 6B) was “glucose lowering”, the “absolute reduction in HbA1C versus vehicle” value ([4]; 28 days daily treatment, Day 29, FIG. 12) was 3.5% and the “HbA1C throughout the entire study, including post-treatment” value ([4]; FIG. 12) was “remained reduced”. The “oral glucose tolerance test (OGTT) on Day 25” value ([4]; both Compound 10 dose groups, in contrast to vehicle and liraglutide) was “improved glycemic control”, the tolerability ([4]; daily treatment for twenty-eight days, throughout the study) was “tolerated Compound 10 well” and the “4-hour fasting blood glucose” value ([4]; high-dose arm, during treatment up to Day 29) was “strong reduction”. The body weight ([5]; 175 mg/kg QD for sixteen days, 175 mg/kg) was “reduces body weight; also recorded: Significant reductions”, the “blood lipemic levels (cholesterol, triglycerides)” value ([5]; 175 mg/kg QD for sixteen days, Day 17, p<0.01, 175 mg/kg) was “significantly reduces; also recorded: Significant reductions” and the “reduction in fasting blood glucose levels” value [5, 9] was about 50%. For the same compound, the “reduction in non-fasting blood glucose levels” value [5, 9] was about 50%, the HOMA-IR ([5]; 175 mg/kg QD, after two weeks of treatment, p<0.001) was “reduced” and the C-peptide levels [5, 10] was “significantly reduced”. For the same compound, the serum insulin levels [5, 10] was “significantly reduced”, the “OGTT AUC reduction, Day 15” value ([5]; 175 mg/kg QD, p<0.001) was 54% and the “OGTT AUC reduction, Day 29” value ([5]; drug washout, ~two weeks after the last dose, p<0.05) was 40%. The “insulin sensitivity (HOMA-IR)” value ([5]; sixteen days of treatment, FIG. 16) was “increases insulin sensitivity”, the “blood glucose, insulin, and C-peptide levels during drug washout” value ([5]; two weeks after the last dose, FIG. 14) was “maintains significant impact” and the body weight [6] was “Significant reductions”. The “blood glucose levels (non-fasting) during treatment” value ([6]; 175 mg/kg QD, measured weekly during treatment, FIG. 15B, 175 mg/kg) was “strongly reduces; also recorded: reduction of glucose levels”, the “OGTT AUC reduction, Day 15” value ([6]; Compound 10 175 mg/kg, pioglitazone 30 mg/kg QD, p<0.05) was 41% and the blood lipemic levels ([6]; p<0.01) was “Significant reductions”.
